Measured values reported in publication PMC7279002, “Novel 3′-Substituted-1′,2′,4′-Oxadiazole Derivatives of 18βH-Glycyrrhetinic Acid and Their O-Acylated Amidoximes: Synthesis and Evaluation of Antitumor and Anti-Inflammatory Potential In Vitro and In Vivo” (International Journal of Molecular Sciences, 2020).
Read-outs that look alike come from different tables or passages of the source.

Legend:
[1] = test system: human duodenal carcinoma HuTu-80; experiment: MTT cytotoxicity assay, 48 h; type: cell-based; details: for IC50: MTT, 48 h, read-out: IC50, µM Duodenum HuTu-80; for Selectivity index: HuTu-80: IC50 in hFF3 / IC50 in HuTu-80
Method: (§1) On the first step of the biological evaluation of novel GA derivatives 3a-h, 4a-h, and 5a-h, we analyzed their cytotoxicity in a panel of cultured mammalian cells, including human cervical carcinoma HeLa and KB-3-1, human duodenal carcinoma HuTu-80, human lung adenocarcinoma A549, murine melanoma B16 cell lines, and nontransformed human fibroblasts hFF3. The cells were treated with derivatives for 48 h and cell viability was evaluated by 3-(4, 5-dimethylthiazol-2-yl)-2, 5-diphenyltetrazolium bromide (MTT) assay. Since the studied compounds contain two types of functional groups at position 3-acetoxy- or the hydroxyl-group, 3-acetoxy-GA 1 and GA-Me were used as references. Additionally, hierarchical clustering of cytotoxic data was carried out in order to reveal groups of compounds with similar cytotoxic profiles (Figure 2A).
(§2) Human cervical carcinoma HeLa and KB-3-1 cells, human duodenal carcinoma HuTu-80 cells, and human lung adenocarcinoma A549 cells were obtained from the Russian Culture Collection (Institute of Cytology, RAS, St. Petersburg, Russia). Melanoma B16-F10 (hereafter, melanoma B16) cells were obtained from the Cell Culture Bank of the Blokhin National Medical Oncology Research Center (Moscow, Russia). Nonmalignant fibroblasts hFF3 and RAW264.7 macrophages were kindly provided by Dr. Olga A. Koval (Institute of Chemical Biology and Fundamental Medicine, SB RAS, Novosibirsk, Russia) and Prof. Dmitry Kuprash (Engelhardt Institute of Molecular Biology, RAS, Moscow, Russia), respectively. The cells were cultured in DMEM (Sigma-Aldrich Inc., St. Louis, MO, USA) supplemented with 10% (v/v) heat-inactivated fetal bovine serum (FBS) (BioloT, St. Petersburg, Russia) and antibiotic–antimycotic solution (100 U/mL penicillin, 100 µg/mL streptomycin, 0.25 µg/mL amphotericin). […] The cells were incubated at 37 °C in a humidified 5% CO2-containing air atmosphere (hereafter referred to as standard conditions). GA derivatives were dissolved in DMSO (stock solutions: 10 mM) and stored at −20 °C prior to use.
(§3) Cells were seeded in tetra- or pentaplicates in 96-well plates at a density of 10^4 (tumor cells and […] fibroblasts) or 10^5 (RAW264.7 cells) cells per well. Cells were incubated under standard conditions for 24 h, followed by their treatment with the investigated derivatives (0.5–50 µM) or corresponding concentrations of DMSO (control) for a further 48 h (tumor cells and fibroblasts) or 24 h (RAW264.7 cells). At the end of incubation period, 10 µL of MTT solution was added to the cells (final concentration: 0.5 mg/mL) and plates were incubated for an additional 2 h under standard conditions. Then, the MTT-containing medium was aspirated and formazan crystals formed in living cells were solubilized with 100 µL of DMSO. The absorbance of each well was read at test and reference wavelengths of 570 and 620 nm, respectively, on a Multiscan RC plate reader (Thermo LabSystems, Helsinki, Finland). The IC50 values (the concentration of compounds leading to a decrease of A570 to 50% of A570^control) were calculated by extrapolation of the dose–response curves. […] A heatmap of SI values was constructed by Microsoft Excel 2010.

murine melanoma B16 = experiment: MTT cytotoxicity assay, 48 h; type: cell-based; details: for Selectivity index: B16: IC50 in hFF3 / IC50 in B16; for IC50: MTT, 48 h
Method: as §1, §2, §3

[2] = test system: human lung adenocarcinoma A549; experiment: MTT cytotoxicity assay, 48 h; type: cell-based; details: for IC50: MTT, 48 h; for Selectivity index: A549: IC50 in hFF3 / IC50 in A549
Method: as §1, §2, §3

[3] = test system: human cervical carcinoma HeLa; experiment: MTT cytotoxicity assay, 48 h; type: cell-based; details: for IC50: MTT, 48 h, read-out: IC50, µM Cervix HeLa; for Selectivity index: HeLa: IC50 in hFF3 / IC50 in HeLa
Method: as §1, §2, §3

[4] = test system: nontransformed human fibroblasts hFF3; experiment: MTT cytotoxicity assay, 48 h; type: cell-based
Method: as §1, §2, §3

[5] = test system: human cervical carcinoma KB-3-1; experiment: MTT cytotoxicity assay, 48 h; type: cell-based; details: for IC50: MTT, 48 h, read-out: IC50, µM Cervix KB-3-1; for Selectivity index: KB-3-1: IC50 in hFF3 / IC50 in KB-3-1
Method: as §1, §2, §3

[6] = test system: HeLa, KB-3-1, HuTu-80, A549, B16 and hFF3 cells; experiment: MTT cytotoxicity, summary over the panel of cell lines; type: cell-based
Method: as §1, §3

[7] = Homo sapiens, HFF-3, read-out: IC50, µM Fibroblast hFF3
[8] = median over all tested cell lines, read-out: median IC50

Row | SMILES | IC50 ([1]; Homo sapiens, HuTu80) [µM] | Selectivity index: HuTu-80 [1] | Selectivity index: B16 (murine melanoma B16) | IC50 (murine melanoma B16; Mus musculus) [µM] | IC50 ([2]; Homo sapiens, A549) [µM] | Selectivity index: A549 [2] | IC50 ([3]; Homo sapiens, HeLa) [µM] | Selectivity index: HeLa [3] | IC50 [4, 7] [µM] | IC50 ([5]; Homo sapiens, KB 3-1) [µM] | Selectivity index: KB-3-1 [5] | IC50 [6, 8] [µM] | melting point | other results
1 | CC(=O)O[C@H]1CC[C@@]2(C)C(CC[C@]3(C)C2C(=O)C=C2[C@@H]4C[C@@](C)(C(=O)O/N=C(\C)N)CC[C@]4(C)CC[C@]23C)C1(C)C (some centres unmarked) [Compound 3a] | 2.3 ± 0.1 | 0.7 | 0.3 | 6.8 ± 0.2 | 2.6 ± 0.1 | 0.7 | 2.6 ± 0.1 | 0.7 | 1.7 ± 0.1 | 5.9 ± 0.2 | 0.3 | 2.6 | 112.8 to 117.3 °C | –
2 | CC(=O)O[C@H]1CC[C@@]2(C)C(CC[C@]3(C)C2C(=O)C=C2[C@@H]4C[C@@](C)(c5nc(-c6ccccn6)no5)CC[C@]4(C)CC[C@]23C)C1(C)C (stereo partly drawn) [Compound 4f, 30-nor-3β-acetoxy-11-oxo-20-(3′-(pyridin-2′′-yl)-1′,2′,4′-oxadiazol-5′-yl)-18βH-olean-12-en] | 11.4 ± 1 | 1.0 | 1.9 | 6 ± 2.3 | 40.3 ± 4.1 | 0.3 | 17.9 ± 7.7 | 0.6 | 11.5 ± 1 | 10.3 ± 1.2 | 1.1 | 11.5 | 293.5 to 297.9 °C | –
3 | CC(=O)O[C@H]1CC[C@@]2(C)C(CC[C@]3(C)C2C(=O)C=C2[C@@H]4C[C@@](C)(c5nc(-c6cccnc6)no5)CC[C@]4(C)CC[C@]23C)C1(C)C (stereo partly drawn) [Compound 4g, 30-nor-3β-acetoxy-11-oxo-20-(3′-(pyridin-3′′-yl)-1′,2′,4′-oxadiazol-5′-yl)-18βH-olean-12-en] | 5.8 ± 0.5 | > 8.6 | – | > 50 | 49.7 ± 4.5 | >1.0 | > 50 | – | > 50 | 9.5 ± 0.5 | > 5.3 | 49.9 | 253.2 °C (dec.) | –
4 | CC(=O)O[C@H]1CC[C@@]2(C)C(CC[C@]3(C)C2C(=O)C=C2[C@@H]4C[C@@](C)(c5nc(-c6ccncc6)no5)CC[C@]4(C)CC[C@]23C)C1(C)C (stereo partly drawn) [Compound 4h, 30-nor-3β-acetoxy-11-oxo-20-(3′-(pyridin-4″-yl)-1′,2′,4′-oxadiazol-5′-yl)-18βH-olean-12-en] | 49.7 ± 2.4 | >1.0 | – | > 50 | > 50 | – | > 50 | – | > 50 | > 50 | – | – | 265.3 to 267.3 °C | cytotoxicity in all tested cell lines [6]: nontoxic; IC50 ([6]; read-out: IC50 values with respect to all tested cell lines): ≥ 50 µM
5 | CC(C)c1noc([C@@]2(C)CC[C@]3(C)CC[C@]4(C)C(=CC(=O)C5[C@@]6(C)CC[C@H](O)C(C)(C)C6CC[C@]54C)[C@@H]3C2)n1 (stereo partly drawn) [Compound 5c, 30-nor-3β-hydroxy-11-oxo-20-(3′-isopropyl-1′,2′,4′-oxadiazol-5′-yl)-18βH-olean-12-en] | 9.5 ± 0.5 | 0.6 | 0.8 | 6.6 ± 0.1 | 4.5 ± 1.1 | 1.2 | 2.6 ± 0.1 | 2.2 | 5.6 ± 1 | 5.9 ± 0.1 | 0.9 | 5.8 | 216.4 to 219.7 °C | –
6 | CC(C)(C)c1noc([C@@]2(C)CC[C@]3(C)CC[C@]4(C)C(=CC(=O)C5[C@@]6(C)CC[C@H](O)C(C)(C)C6CC[C@]54C)[C@@H]3C2)n1 (stereo partly drawn) [Compound 5d, 30-nor-3β-hydroxy-11-oxo-20-(3′-tert-butyl-1′,2′,4′-oxadiazol-5′-yl)-18βH-olean-12-en] | 8.8 ± 1.1 | 2.5 | 1.9 | 11.3 ± 1.9 | 23.5 ± 6.3 | 0.9 | 3.7 ± 0.9 | 5.8 | 21.6 ± 3.4 | 22.3 ± 3.7 | 1.0 | 16.5 | 227.8 °C (dec.) | –
7 | CC1(C)C2CC[C@]3(C)C(C(=O)C=C4[C@@H]5C[C@@](C)(c6nc(-c7ccccc7)no6)CC[C@]5(C)CC[C@]43C)[C@@]2(C)CC[C@@H]1O (stereo partly drawn) [Compound 5e, 30-nor-3β-hydroxy-11-oxo-20-(3′-phenyl-1′,2′,4′-oxadiazol-5′-yl)-18βH-olean-12-en] | > 50 | – | – | > 50 | > 50 | – | 20.3 ± 2.2 | > 2.5 | > 50 | > 50 | – | – | 231.7 to 232.1 °C | cytotoxicity in all tested cell lines [6]: nontoxic
8 | COC(=O)[C@@]1(C)CC[C@]2(C)CC[C@]3(C)C(=CC(=O)[C@@H]4[C@@]5(C)CC[C@H](O)C(C)(C)[C@@H]5CC[C@]43C)[C@@H]2C1 [GA-Me, reference compound] | – | 10.9 | 10.9 | – | – | 8.2 | – | 6.1 | – | – | 10.9 | 1.1 | – | IC50 [1]: 1.6 ± 0.5 µM; IC50 (murine melanoma B16): 0.9 ± 0.1 µM; IC50 [2]: 1.2 ± 0.1 µM; IC50 [3]: 0.9 ± 0.1 µM; IC50 ([4]; read-out: IC50, µM Fibroblast hFF3): 9.8 ± 1 µM; IC50 [5]: 0.9 ± 0.1 µM; median SI ([6]; in all tumor cells): 10.9
